The source of these data is PMC11200585, “Prospects for Prostate Cancer Chemotherapy: Cytotoxic Evaluation and Mechanistic Insights of Quinolinequinones with ADME/PK Profile” (Biomedicines, 2024).

SMILES strings stand for the structures. Where a name gives a salt, the structure may show the parent alone.

For orientation: IC50 means the concentration that gives 50% inhibition. Lower therefore signals greater potency.

Experiment [1] concerns DU-145 cells. In words: Cell cycle assay (flow cytometry, PI). Type of experiment: cell-based, human. The following applies: 24 h, highest concentrations. Here is the method:
Cells were subjected to AQQ1 and DOXO treatments as previously described for apoptosis necrosis analysis. For cell cycle analysis, a cell population of 1 × 10^6 was collected, centrifuged, and the supernatant was removed. The resulting cellular pellet was re-suspended in 70% cold ethanol in PBS. Subsequently, the cells underwent a single PBS wash, followed by incubation in PBS containing […] PI (Sigma-Aldrich, St. Louis, MO, USA) and 2 mg/mL DNase-free RNase-A (Affymetrix, Inc., Santa Barbara, CA, USA) for 30 min at room temperature in a light-protected environment. Analysis was performed using the BD FACS Calibur Flow Cytometry System, and the BD CellQuest Pro Software software (version 5.1, Becton Dickinson, USA) was employed to determine cell cycle phase distributions in comparison to the control group.
On the technique in general: A flow cytometer gives signals particle by particle.

In another experiment the test system is MDA-MB-231 cells. Kind of experiment: MTT assay. Format: cell-based. The settings on record: Homo sapiens, 24 h, mean ± SEM. As to the method:
(§1) For the MTT assay, DU-145, MDA-MB-231, HCT-116, and HUVEC cells (American Type Culture Collection) were seeded at a concentration of 1 × 10^4 cells per well in 96-well plates and allowed to incubate overnight, ensuring proper adherence. Subsequently, a series of concentrations for both AQQ1 and AQQ2 (ranging from 1 to 100 µM) were added to the culture medium with a final concentration of 1% DMSO, and cells were subjected to an additional 24 h incubation period. The control group only received 1% DMSO (Biomatik, Cambridge, ON, Canada). To establish a baseline for comparison, DOXO (Saba, İstanbul, Turkey), a known chemotherapeutic agent, was administered at equivalent concentrations. Following the incubation period, MTT (3-(4,5-dimethylthiazol-2-yl)-2,5-diphenyltetrazolium bromide) (Biomatik, Canada) assay was carried out to assess cell viability. Finally, the absorbance was quantified at 590 nm using a BioTek Epoc plate reader (Biotek, Winooski, VT, USA). The derived data were analysed using GraphPad Prism 8 software to calculate the inhibitory concentration 50 (IC50) values of the test compounds.
For orientation: Tetrazolium assays rely on reduction of a dye to a coloured formazan, in cell work by metabolically active cells.

The test system of experiment [2] is Human Umbilical Vein Endothelial Cells (HUVEC). Kind of experiment: MTT assay. Format: cell-based. The settings on record: 24 h, mean ± SEM. As to the method: as §1
Experiment [3] concerns DU-145 cells. In words: MTT assay. Format: cell-based. The settings on record: Homo sapiens, 24 h, mean ± SEM. Here is the method: as §1
For another experiment, the system named is HCT-116 cells. In words: MTT assay. Format: cell-based. The following applies: Homo sapiens, 24 h, mean ± SEM. Here is the method:
as §1

Turning to `COc1cccc2c1C(=O)c1c(O)c3c(c(O)c1C2=O)C[C@@](O)(C(=O)CO)C[C@@H]3O[C@H]1C[C@H](N)[C@H](O)[C@H](C)O1` [DOXO, Doxorubicin HCl, reference compound], the “population of cells in the G0/G1 phase” value with DU-145 cells [1] is given as “showed a similar effect on DU-145 cells”. The IC50 is 59.1 ± 9.06 µM with MDA-MB-231 cells, 57.5 ± 9.82 µM in experiment [2], below 100 µM in the experiment on DU-145 cells [3] and 24.4 ± 6.9 µM in the experiment with HCT-116 cells.
